This passage reports KA results from ChEMBL document CHEMBL1152017, “Peptide-binding antibiotics: A solid-phase assay for screening libraries of vancomycin mimics for selective d-Ala-d-Ala binding” (Bioorg Med Chem Lett, 1997).

Each structure is given as a SMILES string.

The nature of the test: The compound was tested for binding constant against d-Ala-d-Ala termini on bacterial cell surface.
Turning to `C[C@@H](NC(=O)[C@@H](C)NC(=O)CNS(=O)(=O)c1cccc2c(N(C)C)cccc12)C(=O)O`, the KA was 1.3 mM⁻¹.

Regarding `C[C@H](NC(=O)CNS(=O)(=O)c1cccc2c(N(C)C)cccc12)C(=O)O[C@H](C)C(=O)O`, the KA was under 0.02 mM⁻¹.

Consider `C[C@H](NC(=O)CNS(=O)(=O)c1cccc2c(N(C)C)cccc12)C(=O)N[C@H](C)C(=O)O`, for which the KA stood at 16 mM⁻¹. `C[C@H](NC(=O)[C@H](C)NC(=O)CNS(=O)(=O)c1cccc2c(N(C)C)cccc12)C(=O)O` showed a KA of 1.1 mM⁻¹.
